The values below come from the NIST ThermoML archive (doi:10.1021/je8007588).

The conditions of the data set: 298.15 K; 101.33 kPa; Liquid; Vibrating tube method.

Numbers after ± are expanded uncertainties.

In general, mass density refers to the mass of a sample divided by its volume. In the case of `CCCCCC[N+](C)(C)CCO.F[B-](F)(F)F` [hexyl(2-hydroxyethyl)dimethylammonium tetrafluoroborate], the mass density is given as 1123.6 ± 6.9 kg/m3.
